Test results published in US20260092061A1, “COMPOUNDS FOR TARGETED PROTEIN DEGRADATION” (Amphista Therapeutics Limited, priority 2022, published 2026).
Read-outs that look alike come from different tables or passages of the source.

Target: T1, BRD9 (Homo sapiens, UniProt Q9H8M2)
T1 sequence (Q9H8M2 1-597): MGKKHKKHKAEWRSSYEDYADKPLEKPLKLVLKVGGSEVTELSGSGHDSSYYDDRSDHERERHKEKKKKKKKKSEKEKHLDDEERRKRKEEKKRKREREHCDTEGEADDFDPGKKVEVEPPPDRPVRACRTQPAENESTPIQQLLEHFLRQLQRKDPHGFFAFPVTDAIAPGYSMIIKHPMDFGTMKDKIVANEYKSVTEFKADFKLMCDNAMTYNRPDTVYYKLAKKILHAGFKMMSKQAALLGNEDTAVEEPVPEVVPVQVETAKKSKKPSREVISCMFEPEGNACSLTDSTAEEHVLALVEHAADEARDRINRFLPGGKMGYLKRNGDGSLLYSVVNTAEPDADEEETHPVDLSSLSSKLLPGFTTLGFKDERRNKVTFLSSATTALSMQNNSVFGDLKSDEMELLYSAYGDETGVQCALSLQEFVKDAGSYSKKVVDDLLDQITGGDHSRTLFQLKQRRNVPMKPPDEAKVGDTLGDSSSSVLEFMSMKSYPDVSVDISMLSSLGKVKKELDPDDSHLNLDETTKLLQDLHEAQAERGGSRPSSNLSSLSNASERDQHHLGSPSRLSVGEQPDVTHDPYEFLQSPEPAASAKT
Test: Degradation of BRD9 (IF), immunofluorescence in MV4-11 cells, 24 hours (Assay Protocol 2)
Format: cell-based
Parameters: A suspension of MV4-11 cells (ATCC CRL-9591) was prepared; host or cells: MV4-11
Settings: BRD9 degradation; for DC50: read-out: DC50
Summary of the method: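 % BRD9 remaining, scaled between DMSO (high) and 100 nM CFT-8634 (low) control wells, derives from mean Alexa 647 contrast in central nuclei by high-content imaging. MV4-11 cells had 24 h compound exposure at 37° C. before PFA fixation, Triton permeabilisation and anti-BRD9 E4Q3F immunostaining.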

[1] = MV4-11, Assay protocol 2, read-out: Dmax

DC50 (Assay protocol 2) [nM] | Dmax [1] [%] | Dmax (Assay protocol 2) | SMILES
< 1.25 | > 75 | – | COc1cc(-c2cn(C)c(=O)c(C)c2C)cc(OC)c1CN1CCN(Cc2cccc3c2CCN(C(=O)/C(C#N)=C\C24CC(C)(C2)C4)C3C)C2(CC2)C1 (mixture of isomers) [Compound B161, (E/Z)-2-(5-((7-(2,6-dimethoxy-4-(1,4,5-trimethyl-6-oxo-1,6-dihydropyridin-3-yl)benzyl)-4,7-diazaspiro[2.5]octan-4-yl)methyl)-1-methyl-1,2,3,4-tetrahydroisoquinoline-2-carbonyl)-3-(3-methylbicyclo[1.1.1]pentan-1-yl)acrylonitrile]
< 1.25 | – | +++ (+++ = ≥75%) | COc1cc(-c2cn(C)c(=O)c(C)c2C)cc(OC)c1CN1CCN(Cc2cccc3c2CCN(C(=O)/C(C#N)=C/C2CCOC2)C3C)C2(CC2)C1 (mixture of isomers) [Compound B173, (E/Z)-2-(5-((7-(2,6-dimethoxy-4-(1,4,5-trimethyl-6-oxo-1,6-dihydropyridin-3-yl)benzyl)-4,7-diazaspiro[2.5]octan-4-yl)methyl)-1-methyl-1,2,3,4-tetrahydroisoquinoline-2-carbonyl)-3-(tetrahydrofuran-3-yl)acrylonitril]
< 1.25 | > 75 | – | COc1cc(-c2cn(C)c(=O)c(C)c2C)cc(OC)c1CN1CCN(Cc2cccc3c2CCN(C(=O)/C(C#N)=C/C2(C)CCOC2)C3C)C2(CC2)C1 (mixture of isomers) [Compound B174, (E/Z)-2-(5-((7-(2,6-dimethoxy-4-(1,4,5-trimethyl-6-oxo-1,6-dihydropyridin-3-yl)benzyl)-4,7-diazaspiro[2.5]octan-4-yl)methyl)-1-methyl-1,2,3,4-tetrahydroisoquinoline-2-carbonyl)-3-(3-methyltetrahydrofuran-3-yl)acrylonitrile]
25 to 1000 | 40 to 70 | – | COc1cc(-c2cn(C)c(=O)c(C)c2C)cc(OC)c1CN1CCC(O)(Cc2cccc3c2CCN(C(=O)/C(C#N)=C/C(C)(C)C)C3C)CC1 (mixture of isomers) [Compound B175, (E/Z)-2-(5-((1-(2,6-dimethoxy-4-(1,4,5-trimethyl-6-oxo-1,6-dihydropyridin-3-yl)benzyl)-4-hydroxypiperidin-4-yl)methyl)-1-methyl-1,2,3,4-tetrahydroisoquinoline-2-carbonyl)-4,4-dimethylpent-2-enenitrile]
25 to 1000 | 40 to 70 | – | COc1cc(-c2cn(C)c(=O)c(C)c2C)cc(OC)c1CN1C[C@@H](C)N(C(=O)/C(C#N)=C/C(C)(C)C)C[C@@H]1C (mixture of isomers) [Compound B190, (E/Z)-2-((2R,5S)-4-(2,6-dimethoxy-4-(1,4,5-trimethyl-6-oxo-1,6-dihydropyridin-3-yl)benzyl)-2,6-dimethylpiperazine-1-carbonyl)-4,4-dimethylpent-2-enenitrile]
< 1.25 | > 75 | – | COc1cc(-c2cn(C)c(=O)c(C)c2C)cc(OC)c1CN1CCN(Cc2cccc3c2CCN(C(=O)C(C#N)=CC24CC(OC)(C2)C4)C3C)C2(CC2)C1 (mixture of isomers) [Compound B191, (E/Z)-2-(5-((7-(2,6-dimethoxy-4-(1,4,5-trimethyl-6-oxo-1,6-dihydropyridin-3-yl)benzyl)-4,7-diazaspiro[2.5]octan-4-yl)methyl)-1-methyl-1,2,3,4-tetrahydroisoquinoline-2-carbonyl)-3-(3-methoxybicyclo[1.1.1]pentan-1-yl)acrylonitrile]
25 to 1000 | 40 to 70 | – | COc1cc(-c2cn(C)c(=O)c(C)c2C)cc(OC)c1CN1CCN(Cc2ccc3c(c2)[C@@H](C)N(C(=O)/C(C#N)=C/C(C)(C)C)CC3)CC12CC2 (mixture of isomers) [Compound B199, (E/Z)-2-(7-((4-(2,6-dimethoxy-4-(1,4,5-trimethyl-6-oxo-1,6-dihydropyridin-3yl)benzyl)-4,7-diazaspiro[2.5]octan-7-yl)methyl)-1-methyl-1,2,3,4-tetrahydroisoquinoline-2-carbonyl)-4,4-dimethylpent-2-enenitrile]
1.25 to 10 | > 75 | – | COc1cc(-c2cn(C)c(=O)c(C)c2C)cc(OC)c1CN1CCN(Cc2ccc3c(c2)[C@H](C)N(C(=O)/C(C#N)=C/C(C)(C)C)CC3)CC12CC2 (mixture of isomers) [Compound B200, (E/Z)-2-(7-((4-(2,6-dimethoxy-4-(1,4,5-trimethyl-6-oxo-1,6-dihydropyridin-3yl)benzyl)-4,7-diazaspiro[2.5]octan-7-yl)methyl)-1-methyl-1,2,3,4-tetrahydroisoquinoline-2-carbonyl)-4,4-dimethylpent-2-enenitrile]
< 1.25 | > 75 | – | COc1cc(-c2cn(C)c(=O)c(C)c2C)cc(OC)c1CN1CCN(Cc2cccc3c2CCN(C(=O)/C(C#N)=C/C(C)(C)C)C3C(C)C)CC1 (mixture of isomers) [Compound C7, (E/Z)-2-(5-((4-(2,6-dimethoxy-4-(1,4,5-trimethyl-6-oxo-1,6-dihydropyridin-3-yl)benzyl)piperazin-1-yl)methyl)-1-isopropyl-1,2,3,4-tetrahydroisoquinoline-2-carbonyl)-4,4-dimethylpent-2-enenitrile]
< 1.25 | > 75 | – | COc1cc(-c2cn(C)c(=O)c(C)c2C)cc(OC)c1CN1CCN(Cc2cccc3c2CCN(C(=O)/C(C#N)=C/C(C)(C)C)C3C(C)C)C2(CC2)C1 (mixture of isomers) [Compound C8, (E/Z)-2-(5-((7-(2,6-dimethoxy-4-(1,4,5-trimethyl-6-oxo-1,6-dihydropyridin-3-yl)benzyl)-4,7-diazaspiro[2.5]octan-4-yl)methyl)-1-isopropyl-1,2,3,4-tetrahydroisoquinoline-2-carbonyl)-4,4-dimethylpent-2-enenitrile]
1.25 to 10 | > 75 | – | COc1cc(-c2cn(C)c(=O)c(C)c2C)cc(OC)c1CN1CCN(Cc2cccc3c2CCN(C(=O)/C(C#N)=C/C(C)(C)C)C3C(C)C)CC12CC2 (mixture of isomers) [Compound C10, (E/Z)-2-(5-((4-(2,6-dimethoxy-4-(1,4,5-trimethyl-6-oxo-1,6-dihydropyridin-3-yl)benzyl)-4,7-diazspiro[2.5-]octan-7-yl)methyl)-1-isopropyl-1,2,3,4-tetrahydroisoquinoline-2-carbonyl)-4,4-dimethylpent-2-enenitrile]
1.25 to 10 | 40 to 70 | – | COc1cc(-c2cn(C)c(=O)c(C)c2C)cc(OC)c1CN1CCCN(Cc2cccc3c2CCN(C(=O)/C(C#N)=C/C(C)(C)C)C3C(C)C)CC1 (mixture of isomers) [Compound C11, (E/Z)-2-(5-((4-(2,6-dimethoxy-4-(1,4,5-trimethyl-6-oxo-1,6-dihydropyridin-3-yl)benzyl)-1,4-diazepan-1-yl)methyl)-1-isopropyl-1,2,3,4-tetrahydroisoquinoline-2-carbonyl)-4,4-dimethylpent-2-enenitrile]
25 to 1000 | 70 to 75 | – | COc1cc(-c2cn(C)c(=O)c(C)c2C)cc(OC)c1CN1C[C@H](C)N(Cc2cccc3c2CCN(C(=O)/C(C#N)=C/C(C)(C)C)C3C(C)C)C[C@H]1C (mixture of isomers) [Compound C12, (E/Z)-2-(5-(((2S,5R)-4-(2,6-dimethoxy-4-(1,4,5-trimethyl-6-oxo-1,6-dihydropyridin-3-yl)benzyl)-2,5-dimethylpiperazin-1-yl)methyl)-1-isopropyl-1,2,3,4-tetrahydroisoquinoline-2-carbonyl)-4,4-dimethylpent-2-enenitrile]
< 1.25 | > 75 | – | COc1cc(-c2cn(C)c(=O)c(C)c2C)cc(OC)c1CN1CCN(Cc2cccc3c2CCN(C(=O)/C(C#N)=C/C(C)(C)C)C3C(F)F)C2(CC2)C1 (mixture of isomers) [Compound C13]

SMILES | DC50 (Assay protocol 2) [nM] | Dmax [1] [%] | Dmax (Assay protocol 2)
COc1cc(-c2cn(C)c(=O)c(C)c2C)cc(OC)c1CN1C2CC1CN(C(=O)/C(C#N)=C/c1cccc(C(F)(F)F)n1)C2 (mixture of isomers) [Compound B188, (E/Z)-2-(6-(2,6-dimethoxy-4-(1,4,5-trimethyl-6-oxo-1,6-dihydropyridin-3-yl)benzyl)-3,6-diazabicyclo[3.1.1]heptane-3-carbonyl)-3-(6-(trifluoromethyl)pyridin-2-yl)acrylonitrile] | < 1.25 | > 75 | –
COc1cc(-c2cn(C)c(=O)c(C)c2C)cc(OC)c1CN1C2CC1CN(C(=O)/C(C#N)=C/C1(F)CC1)C2 (mixture of isomers) [Compound B189, (E/Z)-2-(6-(2,6-dimethoxy-4-(1,4,5-trimethyl-6-oxo-1,6-dihydropyridin-3-yl)benzyl)-3,6-diazabicyclo[3.1.1]heptane-3-carbonyl)-3-(1-fluorocyclopropyl)acrylonitrile] | 1.25 to 10 | > 75 | –
